Assay results as given in patent US20110112100A1, “Hepatitis C Virus Inhibitors” (priority 2009, published 2011).

Tests used:
1a-H77 replicon cells = assay: HCV 1a replicon inhibitory activity (Renilla luciferase); format: cell-based, hepatitis C virus; settings: Hepatitis C virus; geometric mean, 95% confidence intervals in parentheses; 48 hours; medium with 10% FCS; read-out: IC50 value (95% Confidence Intervals) pM Replicon 1A assay
Method in brief: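 Replicon cells in DMEM + 10% FCS incubated 48 hours at 37° C., 5% CO2 with 1-in-3 serial dilutions of compound prepared in DMSO. Replication read as Renilla luciferase luminescence after lysis. EC50 taken from log concentration-response curves.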

1b (con1) replicon cells = assay: HCV 1b replicon inhibitory activity (luciferase, Britelite Plus); format: cell-based, hepatitis C virus; settings: Hepatitis C virus; geometric mean, 95% confidence intervals in parentheses; 48 hours; medium with 10% FCS; read-out: IC50 value (95% Confidence Intervals) pM Replicon 1B assay
Method in brief: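 1b (con1) luciferase replicon cells in DMEM + 10% FCS were exposed to 1-in-3 DMSO compound dilutions for 48 h at 37° C, 5% CO2. Luminescence was read 1-15 min after Britelite Plus addition; EC50 came from log concentration-response curves.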

[1] = Compound induced cytotoxicity in HCV replicon cell lines (WST-1 reagent); format: cell-based; settings: human, 1b (con1) HCV replicon cells; WST-1, 48 hours; in 1 experiment
Procedure: Test compounds were solubilised to 4 mM in 100% DMSO. Dilutions were made to the desired starting concentration in 100% DMSO and then 1 in 3 dilutions made, again in 100% DMSO. 0.5 μl of each sample was added to 384-well assay plates. White Lumitrac (Greiner) plates were used for the 1a and 1b replicon assays and black, clear bottomed (Greiner) plates were used for the WST-1 cytotoxity assay.
1b (con1) replicon cells were resuspended to a concentration of 1.4×10^5 cells/ml by addition of pre-warmed medium (DMEM+10% FCS). 50 μl of this suspension was added to each well of a 384-well assay plate (Black, clear bottomed, Greiner) already containing 0.5 μl of test compound.
All plates were covered with gas permeable seals and incubated at 37° C., 5% CO2 for 48 hours. After 48 hours, 5 μl WST-1 reagent (Roche, 11 644 807 001) was added to each well and the plate returned to the incubator for 3 hours. After this incubation period absorbance was read at 450 nm on an EnVision (Perkin Elmer) plate reader. The half maximal cytotoxic concentration (CC50) values were calculated for each compound by constructing log concentration-response curves.
All of the exemplified compounds have been screened in a cell proliferation assay (WST-1). A majority have […] in at least 2 independent experiments, the exceptions being the compounds of examples 1, 10, 12, 23, 25, 37, 47, 48, 49, 52, 56, 57, 58, 60, 67, 68, 69, 70, 71, 72, 73, 74, 79, 81 and 84 which have CC50 values>2 μM in 1 experiment, and example 20 where the CC50 is reported as >10 nM (in this instance the top concentration tested in the assay was 10 nM).

[2] = Plasma protein binding, Rapid Equilibrium Dialysis; format: in vitro ADME; settings: human plasma proteins
Procedure: Plasma binding free fractions (fu) were determined using a proprietary validated Rapid Equilibrium Dialysis (RED) device (Thermofisher). The analyte was spiked to a concentration of 2 μM in pre-prepared male CD rat plasma and 220 μl aliquots (n=4) were loaded into a RED device. The samples were dialysed vs. 350 μl of dulbeccos phosphate buffered saline (dPBS) for 4 h at 37° C. in a CO2 incubator in order to reach equilibrium. After 4 hours, 45 μl buffer and 15 μl plasma aliquots were taken and added to a 200 μl 384-well polypropylene plate. Respective volumes of control buffer were added to the plasma or control plasma was added to the buffer samples to give an identical matrix between samples. The samples were then crashed in 120 μl of acetonitrile and analysed via LC-MS/MS.
For highly bound compounds in the potency assay, which includes 10% foetal calf serum, measured potencies may not reflect real intrinsic potency due to a significant degree of compound binding.

SMILES	IC50 (1a-H77 replicon cells) [pM]	IC50 (1b (con1) replicon cells) [pM]	CC50 at 48 h [1] [nM]	fraction unbound at 4 h, 2 µM [2]
COC(=O)N[C@H](C(=O)N1CCC[C@H]1c1ncc(-c2ccc(-c3ncc4cc(-c5cnc([C@@H]6CCCN6C(=O)[C@@H](NC(=O)OC)C(C)C)[nH]5)ccc4n3)cc2)[nH]1)C(C)C [Example 1]	36	5.89	> 2000	0.0015
COC(=O)N[C@H](C(=O)N1CCC[C@H]1c1nc(-c2ccc3nc(-c4ccc(-c5cnc([C@@H]6CCCN6C(=O)[C@@H](NC(=O)OC)C(C)C)[nH]5)cc4)ccc3c2)c[nH]1)C(C)C [Example 3, [(S)-1-((S)-2-{4-[2-(4-{2-[(S)-1-((S)-2-Methoxycarbonylamino-3-methyl-butyryl)-pyrrolidin-2-yl]-3H-imidazol-4-yl}-phenyl)-quinolin-6-yl]-1H-imidazol-2-yl}-pyrrolidine-1-carbonyl)-2-methyl-propyl]-carbamic acid methyl ester]	74.6	9.31	–	< 0.0015
